Measurements: patent publication US10660910B2, “Use of sedoheptulose for prevention or treatment of inflammation” (C7 SUGAR GMBH, priority 2013, dated 2020)

Key:
[1] = test system: primary human adipocytes; experiment: Extracellular acidification and oxygen consumption rates (XF-Analyzer) in human adipocytes; type: cell-based; conditions: adipocytes differentiated and cultured in sedoheptulose containing media vs controls
Experimental: Stromal vascular fraction cells (SVFs) from subcutaneous white adipose tissue of a patient undergoing abdominal surgery were isolated as described before (Lindroos et al, Cell Metab. (2013), July 2; 18(1):62-74.). Briefly, adipose tissue was digested with Collagenase II (Worthington) and filtered. SVFs were separated from mature adipocytes by centrifugation, followed by the lysis of erythrocytes in the SVF-fraction (Buffer EL, Qiagen). The purified SVFs were cultured in DMEM/F12, 10% FBS (Gibco, Life Technologies). As soon as the cells reached confluence, they were washed with DMEM/F12 w/o glucose (Biowest) and the medium was replaced by DMEM/F12 with a total carbohydrate load of 3 g/L, containing 1.5 g/L glucose and fructose or 1 g/L each of glucose, fructose, and sedoheptulose, respectively. […]
The XF-Analyzer (Seahorse Bio.) was used to measure changes in cellular metabolism induced by different carbohydrates. Extracellular acidification rates (ECAR, mpH/min) and oxygen consumption rates (OCR, pmoles/min) were recorded in primary human adipocytes and primary murine hepatocytes according to the manufacture instructions. […] Changes induced by the different carbohydrate sources were expressed as relative change in % to illustrate the effect of each carbon source.

[2] = test system: Glucose-6-phosphate dehydrogenase (G6PD) in hepatocytes; experiment: Glucose-6-phosphate dehydrogenase activity assay (enzyme histochemistry) in hepatocytes; type: cell-based, mouse; conditions: WT cells incubated in cell culture media with sedoheptulose; compared with phenotype of CARKL overexpressing cells; data not shown
Experimental: Hepatocytes were isolated from male wild-type and CARKL overexpressing mice after the mice were sacrificed by hepatic in situ collagenase perfusion. After perfusion, the liver was quickly removed, minced, and filtered through a cell strainer (Fisher Scientific, Inc) into a 50 ml sterile tube. Hepatocytes in the resulting filtrate were purified from the nonparenchymal cells by centrifugation steps. The isolated hepatocytes were seeded into plates at a concentration of 0.25×10^6/ml in respective DMEM-media containing 10% FBS and indicated carbohydrate mixes at 3 g/L (glucose and fructose (GF), or glucose, fructose and sedoheptulose (GFS)) at least two days before experiments were performed. Cells were grown on polystyrene vessel tissue culture treated glass slides, snap frozen in liquid nitrogen and kept at −80° C. The enzyme histochemical procedure was based on the tetrazolium salt method as described by Van Noorden and Frederiks. […] The medium was freshly prepared immediately before incubation. Control reactions additionally contained 40 mM glucosamine-6-phosphate. Cells were incubated at room temperature for 15 minutes under continuous mixing by orbital shaker. After incubation, cells were washed 3×5 minutes in […] phosphate buffered saline, dried, and mounted in glycerol gelatin, and photographed within one day at ×10 magnification.

O=C(CO)[C@@H](O)[C@H](O)[C@H](O)[C@H](O)CO [sedoheptulose, Sedoheptulose]
cellular oxygen consumption rates (OCR) ([1]; FIG. 3D): increased
extracellular acidification rates (ECAR) ([1]; FIG. 3E): comparable
G6PD activity distribution (re-localization of G6PD, reduced activity in the inner space of the cells) [2]: same phenotype
